# Measurements as given in patent publication US10980889B1 (Revolution Medicines, Inc., priority 2018, dated 2021).
# Legend:
# P-P70S6K (T389) = assay: Cell based AlphaLISA assay, inhibition of P-P70S6K (T389) in MDA-MB-468 cells (mTORC1 substrate); settings: AlphaLisa, two to four hours at 37° C.; for IC50: Homo sapiens, 4 h, read-out: pIC50 for Inhibition of mTORC1 and mTORC2 Substrate Phosphorylation p-P70S6K-(T389) (converted)
# Description: (§1) Cell Based AlphaLISA Assays For Determining IC50 For Inhibition of P-Akt (S473), P-4E-BP1(T37/46), and P-P70S6K (T389) in MDA-MB-468 Cells
# (§2) mTOR Kinase Cellular Assay
# (§3) To measure functional activity of mTORC1 and mTORC2 in cells the phosphorylation of 4EBPT (Thr37/46) and P70S6K (Thr389), and AKT1/2/3 (Ser473) was monitored using AlphaLisa SureFire Ultra Kits (Perkin Elmer). […] Incubations were terminated by removal of the assay buffer and addition of lysis buffer provided with the assay kit. Samples were processed according to the manufacturer's instructions. The Alpha signal from the respective phosphoproteinswas measured in duplicate using a microplate reader (Envision, Perkin-Elmer or Spectramax M5, Molecular Devices). Inhibitor concentration response curves were analyzed using normalized IC50 regression curve filling with control based normalization.
# P-4E-BP1 (T37/46) = assay: Cell based AlphaLISA assay, inhibition of P-4E-BP1 (T37/46) in MDA-MB-468 cells (mTORC1 substrate); settings: AlphaLisa, two to four hours at 37° C.; for IC50: Homo sapiens, 4 h, read-out: pIC50 for Inhibition of mTORC1 and mTORC2 Substrate Phosphorylation P-4E-BP1-(T37/46) (converted)
# Description: as §1, §2, §3
# P-Akt (S473) = assay: Cell based AlphaLISA assay, inhibition of P-Akt (S473) in MDA-MB-468 cells (mTORC2 substrate); settings: AlphaLisa, two to four hours at 37° C.; for IC50: Homo sapiens, 4 h, read-out: pIC50 for Inhibition of mTORC1 and mTORC2 Substrate Phosphorylation p-AKT1/2/3-(S473) (converted)
# Description: as §1, §2, §3
Structure (SMILES),pIC50 for Inhibition of mTORC1 and mTORC2 Substrate Phosphorylation p-P70S6K-(T389) (P-P70S6K (T389)),pIC50 for Inhibition of mTORC1 and mTORC2 Substrate Phosphorylation P-4E-BP1-(T37/46) (P-4E-BP1 (T37/46)),pIC50 for Inhibition of mTORC1 and mTORC2 Substrate Phosphorylation p-AKT1/2/3-(S473) (P-Akt (S473)),IC50 (P-P70S6K (T389)) [nM],IC50 (P-4E-BP1 (T37/46)) [nM],IC50 (P-Akt (S473)) [nM]
CO[C@H]1C[C@@H]2CC[C@@H](C)[C@@](O)(O2)C(=O)C(=O)N2CCCC[C@H]2C(=O)O[C@H]([C@H](C)C[C@@H]2CC[C@@H](OC(=O)NCCOCCOCCOCCOCCOCCOCCOCCOCC(=O)N3CCc4cc(Cn5nc(-c6ccc7oc(N)nc7c6)c6c(N)ncnc65)ccc4C3)[C@H](OC)C2)C[C@@H](O)[C@H](C)/C=C(\C)[C@@H](O)[C@@H](OC)C(=O)[C@H](C)C[C@H](C)/C=C/C=C/C=C/1C [Example 72],+++ (≥9),+++ (≥8.5),+++ (≥8.5),,,
CO[C@H]1C[C@@H]2CC[C@@H](C)[C@@](O)(O2)C(=O)C(=O)N2CCCC[C@H]2C(=O)O[C@H]([C@H](C)C[C@@H]2CC[C@@H](OC(=O)NCCOCCOCCOCCOCCOCCOCCOCCOCCC(=O)N3CCc4cc(Cn5nc(-c6ccc7oc(N)nc7c6)c6c(N)ncnc65)ccc4C3)[C@H](OC)C2)C[C@@H](O)[C@H](C)/C=C(\C)[C@@H](O)[C@@H](OC)C(=O)[C@H](C)C[C@H](C)/C=C/C=C/C=C/1C [Example 75],+++ (≥9),+++ (≥8.5),++ (8.5 > pIC50 ≥ 7.5),,,
CO[C@H]1C[C@@H]2CC[C@@H](C)[C@@](O)(O2)C(=O)C(=O)N2CCCC[C@H]2C(=O)O[C@H]([C@H](C)C[C@@H]2CC[C@@H](OC(=S)NCCOCCOCCOCCOCCOCCOCCOCCOCCC(=O)N3CCc4cc(Cn5nc(-c6ccc7oc(N)nc7c6)c6c(N)ncnc65)ccc4C3)[C@H](OC)C2)C[C@@H](O)[C@H](C)/C=C(\C)[C@@H](O)[C@@H](OC)C(=O)[C@H](C)C[C@H](C)/C=C/C=C/C=C/1C [Example 77],+++ (≥9),++ (8.5 > pIC50 ≥ 7.5),+ (7.5 > pIC50 ≥ 6.0),,,
CO[C@H]1C[C@@H]2CC[C@@H](C)[C@@](O)(O2)C(=O)C(=O)N2CCCC[C@H]2C(=O)O[C@H]([C@H](C)C[C@@H]2CC[C@@H](OC(=S)NCCOCCOCCOCCOCCOCCOCCOCCOCCC(=O)N3CCc4cc(Cn5nc(-c6ccc7oc(N)nc7c6)c6c(N)ncnc65)ccc4C3)[C@H](OC)C2)C[C@@H](OC)[C@H](C)/C=C(\C)[C@@H](O)[C@@H](OC)C(=O)[C@H](C)C[C@H](C)/C=C/C=C/C=C/1C [Example 78],+++ (≥9),+++ (≥8.5),+++ (≥8.5),,,
CO[C@H]1C[C@@H]2CC[C@@H](C)[C@@](O)(O2)C(=O)C(=O)N2CCCC[C@H]2C(=O)O[C@H]([C@H](C)C[C@@H]2CC[C@@H](OC(=O)NCCOCCOCCOCCOCCOCCOCCOCCOCCC(=O)NCc3ccc(Cn4nc(-c5ccc6oc(N)nc6c5)c5c(N)ncnc54)cc3)[C@H](OC)C2)CC(=O)[C@H](C)/C=C(\C)[C@@H](O)[C@@H](OC)C(=O)[C@H](C)C[C@H](C)/C=C/C=C/C=C/1C [Example 79],+++ (≥9),+++ (≥8.5),+ (7.5 > pIC50 ≥ 6.0),,,
CO[C@H]1C[C@@H]2CC[C@@H](C)[C@@](O)(O2)C(=O)C(=O)N2CCCC[C@H]2C(=O)O[C@H]([C@H](C)C[C@@H]2CC[C@@H](OC(=O)NCCOCCOCCOCCOCCOCCOCCOCCOCCC(=O)NCc3ccc(Cn4nc(-c5ccc6oc(N)nc6c5)c5c(N)ncnc54)cc3)[C@H](OC)C2)C[C@@H](OC)[C@H](C)/C=C(\C)[C@@H](O)[C@@H](OC)C(=O)[C@H](C)C[C@H](C)/C=C/C=C/C=C/1C [Example 81],+++ (≥9),++ (8.5 > pIC50 ≥ 7.5),− (<6),,,
CO[C@H]1C[C@@H]2CC[C@@H](C)[C@@](O)(O2)C(=O)C(=O)N2CCCC[C@H]2C(=O)O[C@H]([C@H](C)C[C@@H]2CC[C@@H](OC(=O)NCCOCCOCCOCCOCCOCCOCCOCCOCCC(=O)NCc3ccc(Cn4nc(-c5ccc6oc(N)nc6c5)c5c(N)ncnc54)cc3)[C@H](OC)C2)C[C@H](N=[N+]=[N-])[C@H](C)/C=C(\C)[C@@H](O)[C@@H](OC)C(=O)[C@H](C)C[C@H](C)/C=C/C=C/C=C/1C [Example 82],+++ (≥9),+++ (≥8.5),− (<6),,,
CO[C@H]1C[C@@H]2CC[C@@H](C)[C@@](O)(O2)C(=O)C(=O)N2CCCC[C@H]2C(=O)O[C@H]([C@H](C)C[C@@H]2CC[C@@H](OC(=S)NCCOCCOCCOCCOCCOCCOCCOCCOCCC(=O)NCc3ccc(Cn4nc(-c5ccc6oc(N)nc6c5)c5c(N)ncnc54)cc3)[C@H](OC)C2)C[C@@H](O)[C@H](C)/C=C(\C)[C@@H](O)[C@@H](OC)C(=O)[C@H](C)C[C@H](C)/C=C/C=C/C=C/1C [Example 83],+++ (≥9),+++ (≥8.5),++ (8.5 > pIC50 ≥ 7.5),,,
CO[C@H]1C[C@@H]2CC[C@@H](C)[C@@](O)(O2)C(=O)C(=O)N2CCCC[C@H]2C(=O)O[C@H]([C@H](C)C[C@@H]2CC[C@@H](OC(=O)NCc3cnc(N4CCN(c5ncc(C(=O)NCCOCCOCCOCCOCCC(=O)N6CCc7cc(Cn8nc(-c9cnc%10[nH]ccc%10c9)c9c(N)ncnc98)ccc7C6)cn5)CC4CO)nc3)[C@H](OC)C2)CC(=O)[C@H](C)/C=C(\C)[C@@H](O)[C@@H](OC)C(=O)[C@H](C)C[C@H](C)/C=C/C=C/C=C/1C (stereo partly drawn) [Example 86],,,,< 1,< 3.16,3.16 to 31.6
CO[C@H]1C[C@@H]2CC[C@@H](C)[C@@](O)(O2)C(=O)C(=O)N2CCCC[C@H]2C(=O)O[C@H]([C@H](C)C[C@@H]2CC[C@@H](OC(=O)NCc3cnc(N4CCN(C(=O)CN(C)CC(=O)NCCOCCOCCC(=O)N5CCc6cc(Cn7nc(-c8ccc9oc(N)nc9c8)c8c(N)ncnc87)ccc6C5)CC4)nc3)[C@H](OC)C2)CC(=O)[C@H](C)/C=C(\C)[C@@H](O)[C@@H](OC)C(=O)[C@H](C)C[C@H](C)/C=C/C=C/C=C/1C [Example 87],,,,< 1,< 3.16,3.16 to 31.6
CO[C@H]1C[C@@H]2CC[C@@H](C)[C@@](O)(O2)C(=O)C(=O)N2CCCC[C@H]2C(=O)O[C@H]([C@H](C)C[C@@H]2CC[C@@H](OC(=O)NCc3cnc(N4CCN(CCOCCOCCOCCOCCC(=O)N5CCc6cc(Cn7nc(-c8ccc9oc(N)nc9c8)c8c(N)ncnc87)ccc6C5)CC4)nc3)[C@H](OC)C2)CC(=O)[C@H](C)/C=C(\C)[C@@H](O)[C@@H](OC)C(=O)[C@H](C)C[C@H](C)/C=C/C=C/C=C/1C [Example 88],,,,< 1,< 3.16,3.16 to 31.6
CO[C@H]1C[C@@H]2CC[C@@H](C)[C@@](O)(O2)C(=O)C(=O)N2CCCC[C@H]2C(=O)O[C@H]([C@H](C)C[C@@H]2CC[C@@H](OC(=O)NCc3cnc(N4CCN(CCOCCOCCOCCOCCC(=O)N5CCc6cc(Cn7nc(-c8ccc9oc(N)nc9c8)c8c(N)ncnc87)ccc6C5)CC4)nc3)[C@H](OC)C2)C[C@@H](OC)[C@H](C)/C=C(\C)[C@@H](O)[C@@H](OC)C(=O)[C@H](C)C[C@H](C)/C=C/C=C/C=C/1C [Example 89],,,,< 1,< 3.16,> 1000
CO[C@H]1C[C@@H]2CC[C@@H](C)[C@@](O)(O2)C(=O)C(=O)N2CCCC[C@H]2C(=O)O[C@H]([C@H](C)C[C@@H]2CC[C@@H](OC(=O)NCc3cnc(N4CCN(CCOCCOCCOCCOCCC(=O)NCCCCn5nc(-c6ccc7oc(N)nc7c6)c6c(N)ncnc65)CC4)nc3)[C@H](OC)C2)C[C@@H](OC)[C@H](C)/C=C(\C)[C@@H](O)[C@@H](OC)C(=O)[C@H](C)C[C@H](C)/C=C/C=C/C=C/1C [Example 90],,,,< 1,> 1000,> 1000
CO[C@H]1C[C@@H]2CC[C@@H](C)[C@@](O)(O2)C(=O)C(=O)N2CCCC[C@H]2C(=O)O[C@H]([C@H](C)C[C@@H]2CC[C@@H](OC(=O)NCc3cnc(N4CCN(C(=O)CN(C)CC(=O)NCCOCCOCCC(=O)N5CCc6cc(Cn7nc(-c8ccc9oc(N)nc9c8)c8c(N)ncnc87)ccc6C5)CC4)nc3)[C@H](OC)C2)C[C@@H](OC)[C@H](C)/C=C(\C)[C@@H](O)[C@@H](OC)C(=O)[C@H](C)C[C@H](C)/C=C/C=C/C=C/1C [Example 91],,,,< 1,< 3.16,3.16 to 31.6
CO[C@H]1C[C@@H]2CC[C@@H](C)[C@@](O)(O2)C(=O)C(=O)N2CCCCC2C(=O)O[C@H]([C@H](C)C[C@@H]2CC[C@@H](OC(=O)NCc3cnc(N4CCN(C(=O)CN(C)CC(=O)NCCOCCOCCC(=O)NCCCCn5nc(-c6ccc7oc(N)nc7c6)c6c(N)ncnc65)CC4)nc3)[C@H](OC)C2)C[C@@H](OC)[C@H](C)/C=C(\C)[C@@H](O)[C@@H](OC)C(=O)[C@H](C)C[C@H](C)/C=C/C=C/C=C/1C (stereo partly drawn) [Example 92],,,,< 1,< 3.16,3.16 to 31.6
